In ChEMBL document CHEMBL1671704, “Defining the role of mutations in Plasmodium vivax dihydrofolate reductase-thymidylate synthase gene using an episomal Plasmodium falciparum transfection system” (Antimicrob Agents Chemother, 2010):

Legend:
Plasmodium falciparum [1] = assay: Antimalarial activity against Plasmodium falciparum D6 infected in RBCs assessed as inhibition of [3H]hypoxanthine incorporation after 72 hrs; format: functional, organism-based
Plasmodium falciparum [2] = assay: Antimalarial activity against Plasmodium falciparum TM91c235 harboring DHFR F57L, S58R, T61M, S117T mutant infected in RBCs assessed as inhibition of [3H]hypoxanthine incorporation after 72 hrs; format: functional, organism-based
Plasmodium falciparum [3] = assay: Antimalarial activity against Plasmodium falciparum D6 harboring Plasmodium vivax wild type DHFR infected in RBCs assessed as inhibition of [3H]hypoxanthine incorporation after 72 hrs; format: functional, organism-based
Plasmodium falciparum [4] = assay: Antimalarial activity against Plasmodium falciparum D6 harboring Plasmodium vivax DHFR F57L and S117N mutant infected in RBCs assessed as inhibition of [3H]hypoxanthine incorporation after 72 hrs; format: functional, organism-based
Plasmodium falciparum [5] = assay: Antimalarial activity against Plasmodium falciparum D6 harboring Plasmodium vivax DHFR S58R and S117N mutant infected in RBCs assessed as inhibition of [3H]hypoxanthine incorporation after 72 hrs; format: functional, organism-based
Plasmodium falciparum [6] = assay: Antimalarial activity against Plasmodium falciparum D6 harboring Plasmodium vivax DHFR S58R, T61M and S117N mutant infected in RBCs assessed as inhibition of [3H]hypoxanthine incorporation after 72 hrs; format: functional, organism-based
Plasmodium falciparum [7] = assay: Antimalarial activity against Plasmodium falciparum D6 harboring Plasmodium vivax DHFR F57L, S58R, T61M, S117T mutant infected in RBCs assessed as inhibition of [3H]hypoxanthine incorporation after 72 hrs; format: functional, organism-based
Plasmodium falciparum [8] = assay: Antimalarial activity against Plasmodium falciparum D6 harboring Plasmodium vivax DHFR S117N mutant infected in RBCs assessed as inhibition of [3H]hypoxanthine incorporation after 72 hrs; format: functional, organism-based
Plasmodium falciparum [9] = assay: Ratio of IC50 for Plasmodium falciparum D6 harboring Plasmodium vivax DHFR S117N mutant to IC50 for Plasmodium falciparum D6 harboring Plasmodium vivax wild type DHFR; format: functional
Plasmodium falciparum [10] = assay: Ratio of IC50 for Plasmodium falciparum D6 harboring Plasmodium vivax DHFR F57L and S117N mutant to IC50 for Plasmodium falciparum D6 harboring Plasmodium vivax wild type DHFR; format: functional
Plasmodium falciparum [11] = assay: Ratio of IC50 for Plasmodium falciparum D6 harboring Plasmodium vivax DHFR S58R and S117N mutant to IC50 for Plasmodium falciparum D6 harboring Plasmodium vivax wild type DHFR; format: functional
Plasmodium falciparum [12] = assay: Ratio of IC50 for Plasmodium falciparum D6 harboring Plasmodium vivax DHFR S58R, T61M and S117N mutant to IC50 for Plasmodium falciparum D6 harboring Plasmodium vivax wild type DHFR; format: functional
Plasmodium falciparum [13] = assay: Ratio of IC50 for Plasmodium falciparum D6 harboring Plasmodium vivax DHFR F57L, S58R, T61M, S117T mutant to IC50 for Plasmodium falciparum D6 harboring Plasmodium vivax wild type DHFR; format: functional
Plasmodium falciparum [14] = assay: Ratio of IC50 for Plasmodium falciparum TM91c235 harboring DHFR F57L, S58R, T61M, S117T mutant to IC50 for Plasmodium falciparum D6; format: functional

Row | Structure (SMILES) | IC50 (Plasmodium falciparum [1]) | IC50 (Plasmodium falciparum [2]) | IC50 (Plasmodium falciparum [3]) | IC50 (Plasmodium falciparum [4]) | IC50 (Plasmodium falciparum [5]) | IC50 (Plasmodium falciparum [6]) | IC50 (Plasmodium falciparum [7]) | IC50 (Plasmodium falciparum [8]) | Ratio IC50 (Plasmodium falciparum [9]) | Ratio IC50 (Plasmodium falciparum [10]) | Ratio IC50 (Plasmodium falciparum [11]) | Ratio IC50 (Plasmodium falciparum [12]) | Ratio IC50 (Plasmodium falciparum [13]) | Ratio IC50 (Plasmodium falciparum [14])
1 | CCc1nc(N)nc(N)c1-c1ccc(Cl)cc1 [PYRIMETHAMINE] | 0.028 nM | 143 nM | 0.055 nM | 3.66 nM | 6.26 nM | 2.81 nM | 467 nM | – | – | – | – | – | – | –
2 | CC1(C)N=C(N)N=C(N)N1c1ccc(Cl)cc1 [CYCLOGUANIL] | 0.118 nM | 116 nM | 0.429 nM | 2.77 nM | 1.7 nM | 0.587 nM | 320 nM | 0.81 nM | 2 | 6 | 4 | 1 | 746 | 50
3 | CC1(C)N=C(N)N=C(N)N1OCc1ccc(Cl)c(Cl)c1 [CLOCIGUANIL] | 0.021 nM | 3.16 nM | 0.022 nM | 0.219 nM | 0.582 nM | 0.073 nM | 56.4 nM | 0.067 nM | 6 | 10 | 26 | 3 | 2565 | 144
4 | CC1(C)N=C(N)N=C(N)N1OCCCOc1cc(Cl)c(Cl)cc1Cl | 0.166 nM | 0.339 nM | 0.067 nM | 1.5 nM | 0.69 nM | 0.105 nM | 2.93 nM | 0.427 nM | 6 | 22 | 10 | 2 | 44 | 5
